According to PMC9865212, “Compounds from the Petroleum Ether Extract of Wedelia chinensis with Cytotoxic, Anticholinesterase, Antioxidant, and Antimicrobial Activities” (Molecules, 2023):
Values after ≈ are worked out from the molar mass of the structure shown. Where two headings read alike, the source gives them in different places.

Experiments:
Escherichia coli = assay: microbe, parasite or virus in culture; format: cell-based, Escherichia coli (FPFC-1407)
Staphylococcus aureus = assay: microbe, parasite or virus in culture; format: cell-based, Staphylococcus aureus (ATCC-259233)
[1] = Brine shrimp lethality bioassay (cytotoxicity); conditions: Artemia salina (brine shrimp nauplii), in vivo
Shigella boydii = assay: microbe, parasite or virus in culture; format: cell-based, Shigella boydii (AL-17313)
Shigella flexneriae = assay: microbe, parasite or virus in culture; format: cell-based, Shigella flexneriae (AM-36282)
Aspergillus niger = format: cell-based, Aspergillus niger (ATCC-1204)
Candida species = assay: microbe, parasite or virus in culture; format: cell-based
Pseudomonas aeruginosa = assay: microbe, parasite or virus in culture; format: cell-based, Pseudomonas aeruginosa (ATCC-27853)
Salmonella typhi = assay: microbe, parasite or virus in culture; format: cell-based, Salmonella typhi (ATCC-14028); conditions: for zone of inhibition at 400 µg/disc: Salmonella enterica
[2] = Reducing power assay (antioxidant, Fe3+ to Fe2+); conditions: at a concentration of 40 µg/mL, absorbance at 700 nm
[3] = target: T1, BChE enzyme from human blood (Homo sapiens, UniProt P06276); assay: Anti-BChE assay, Ellman method; format: biochemical
T1 construct: BChE enzyme from human blood of a volunteer; from tissue; host or cells: human blood of a volunteer
Experimental: (§1) We used the prepared AChE enzyme from mice brain and BChE enzyme from human blood of a volunteer that has been mentioned earlier. Various concentrations of the compound (500 μL) were mixed with the enzyme solution (500 μL) and incubated at 37 °C for 30 min. A reaction mixture was prepared that contained 0.5 mM acetylthiocholine/butyrylthiocholine and 1 mM DTNB in 50 mM sodium phosphate buffer (pH 8.0). To the reaction mixture (3.5 mL), the enzyme solution containing compound was added, incubated, and immediately the absorbance of the solution was determined at 412 nm. […] The percent inhibition was calculated by dividing the difference of sample absorbance from control with control absorbance × 100.

[4] = target: T2, AChE enzyme from mice brain (Mus musculus, UniProt P21836); assay: biochemical
T2 construct: We used the prepared AChE enzyme from mice brain; from tissue; host or cells: mouse brain
Experimental: as §1

Aspergillus flavus = assay: microbe, parasite or virus in culture; format: cell-based, Aspergillus flavus (ATCC-9807)
Bacillus megaterium = assay: microbe, parasite or virus in culture; format: cell-based, Bacillus megaterium (QL-38); conditions: for zone of inhibition at 400 µg/disc: Priestia megaterium
Fusarium species = assay: microbe, parasite or virus in culture; format: cell-based
Shigella sonnei = assay: microbe, parasite or virus in culture; format: cell-based, Shigella sonnei (AJ-8992)
Sarcina lutea = assay: microbe, parasite or virus in culture; format: cell-based, Sarcina lutea (QL-1660); conditions: for zone of inhibition at 400 µg/disc: Micrococcus luteus
Shigella dysenteriae = assay: microbe, parasite or virus in culture; format: cell-based, Shigella dysenteriae (AL-35587)
Bacillus Subtilis = assay: microbe, parasite or virus in culture; format: cell-based, Bacillus subtilis (QL-40)
Strep-β-haemolyticus = assay: organism not typed; format: cell-based, Streptococcus-ß-haemolyticus (ATCC-10389)
Shigella shiga = assay: microbe, parasite or virus in culture; format: cell-based, Shigella shiga (ATCC-26107); conditions: for zone of inhibition at 400 µg/disc: Shigella
Klebsiella species = assay: microbe, parasite or virus in culture; format: cell-based
[5] = tested on: brine shrimp nauplii (Artemia salina Lech); assay: Brine shrimp lethality bioassay (cytotoxicity); conditions: brine shrimp lethality, 5–80 μg/mL

T1 sequence (P06276 29-602): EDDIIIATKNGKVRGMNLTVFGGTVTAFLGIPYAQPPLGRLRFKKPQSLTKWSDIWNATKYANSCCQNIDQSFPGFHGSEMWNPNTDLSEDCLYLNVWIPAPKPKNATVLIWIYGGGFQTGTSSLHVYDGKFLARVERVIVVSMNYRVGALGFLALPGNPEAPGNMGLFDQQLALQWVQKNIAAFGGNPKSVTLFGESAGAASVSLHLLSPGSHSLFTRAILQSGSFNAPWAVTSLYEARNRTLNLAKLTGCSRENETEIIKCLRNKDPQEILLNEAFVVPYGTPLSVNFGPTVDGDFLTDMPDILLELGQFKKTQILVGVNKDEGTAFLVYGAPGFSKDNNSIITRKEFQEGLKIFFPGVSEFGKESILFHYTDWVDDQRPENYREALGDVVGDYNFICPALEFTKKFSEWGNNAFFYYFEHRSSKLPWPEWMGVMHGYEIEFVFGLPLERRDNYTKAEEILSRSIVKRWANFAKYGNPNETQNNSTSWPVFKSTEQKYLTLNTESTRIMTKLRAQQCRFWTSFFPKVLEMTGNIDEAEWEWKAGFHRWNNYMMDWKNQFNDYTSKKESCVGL
T2 sequence (P21836 32-614): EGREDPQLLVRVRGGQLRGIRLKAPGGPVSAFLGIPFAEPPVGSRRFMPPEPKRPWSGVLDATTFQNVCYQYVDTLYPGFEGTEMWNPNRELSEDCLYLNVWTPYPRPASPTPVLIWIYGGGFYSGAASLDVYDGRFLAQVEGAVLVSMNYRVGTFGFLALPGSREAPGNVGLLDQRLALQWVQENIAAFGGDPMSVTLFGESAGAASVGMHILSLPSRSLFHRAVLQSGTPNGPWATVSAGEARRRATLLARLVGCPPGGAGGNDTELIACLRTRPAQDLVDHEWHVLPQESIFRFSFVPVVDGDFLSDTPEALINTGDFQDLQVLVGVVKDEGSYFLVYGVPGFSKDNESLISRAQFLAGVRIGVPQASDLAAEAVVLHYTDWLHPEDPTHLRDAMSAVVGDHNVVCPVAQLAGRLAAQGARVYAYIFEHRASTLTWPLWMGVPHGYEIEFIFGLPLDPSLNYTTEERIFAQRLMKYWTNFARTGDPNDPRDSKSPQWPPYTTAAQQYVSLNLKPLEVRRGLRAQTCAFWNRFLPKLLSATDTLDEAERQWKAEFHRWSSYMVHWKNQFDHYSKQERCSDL

| SMILES | zone of inhibition at 400 µg/disc (Escherichia coli; 400 μg/disc) | zone of inhibition at 400 µg/disc (Staphylococcus aureus; 400 μg/disc) | LC50 at 24 h [1] | zone of inhibition at 400 µg/disc (Shigella boydii; 400 μg/disc) | zone of inhibition at 400 µg/disc (Shigella flexneriae; 400 μg/disc) | Zone of Inhibition (Aspergillus niger; 400μg/disc) | zone of inhibition at 400 µg/disc (Pseudomonas aeruginosa; 400 μg/disc) | zone of inhibition at 400 µg/disc (Salmonella typhi; 400 μg/disc) | absorbance (reducing power) [2] | IC50 [3] | IC50 [4] | zone of inhibition at 400 µg/disc (Bacillus megaterium; 400 μg/disc) | zone of inhibition at 400 µg/disc (Shigella sonnei; 400 μg/disc) | zone of inhibition at 400 µg/disc (Sarcina lutea; 400 μg/disc) | zone of inhibition at 400 µg/disc (Shigella dysenteriae; 400 μg/disc) | zone of inhibition at 400 µg/disc (Bacillus Subtilis; 400 μg/disc) | zone of inhibition at 400 µg/disc (Strep-β-haemolyticus; 400 μg/disc) | zone of inhibition at 400 µg/disc (Shigella shiga) | zone of inhibition at 400 µg/disc (Klebsiella species; 400 μg/disc) | Zone of Inhibition (Candida species; 400μg/disc) | also measured |
| --- | --- | --- | --- | --- | --- | --- | --- | --- | --- | --- | --- | --- | --- | --- | --- | --- | --- | --- | --- | --- | --- |
| C=C1C[C@@]23CCC4[C@](C)(C(=O)O)CCC[C@@]4(C)[C@@H]2CC[C@@H]1C3 (single isomer, unassigned; (-)) [Compound 2, (-) kaur-16-en-19-oic acid] | 16 mm | 13 mm | 16.2 ± 1.11 µg/mL (≈ 53.5 µM) | 14 mm | 13 mm | − | 16 mm | 15 mm | 1.26 | 111 µM | 115 µM | 12 mm | 13 mm | 16 mm | 20 mm | 14 mm | 18 mm | 15 mm | 17 mm |  | zone of inhibition at 400 µg/disc (Candida species; 400μg/disc): 13 mm; zone of inhibition at 400 µg/disc (Aspergillus flavus; 400μg/disc): 17 mm; zone of inhibition at 400 µg/disc (Fusarium species; 400μg/disc): 11 mm |
| C[C@@]12CCC[C@@](C)(C(=O)O)[C@H]1CC[C@@]13C[C@@H](CC[C@H]12)[C@](C)(O)C3 [Compound 1, (-) kaur-16α-hydroxy-19-oic acid] | 14 mm | 23 mm | 12.4 ± 0.87 µg/mL (≈ 38.8 µM) | 13 mm | 12 mm | − | 15 mm | 13 mm | 1.55 |  |  | 14 mm | 15 mm | 17 mm | 19 mm | 13 mm | 17 mm | 14 mm | 15 mm | inactive and − | IC50 ([3]; mean ± SD (n = 3), read-out: IC50, inhibition of butyrylcholinesterase (BChE) (converted)): 145 µM; IC50 ([4]; mean ± SD (n = 3), read-out: IC50, inhibition of acetylcholinesterase (AChE) (converted)): 152 µM; zone of inhibition at 400 µg/disc (Aspergillus flavus; 400μg/disc): 14 mm; zone of inhibition at 400 µg/disc (Fusarium species; 400μg/disc): 12 mm |
| CC[C@H](CC[C@@H](C)[C@H]1CC[C@H]2[C@@H]3CC=C4C[C@@H](O)CC[C@]4(C)[C@H]3CC[C@]12C)C(C)C [Compound 3, β-sitosterol] |  |  |  |  |  | − |  |  |  | 104 µM | 107 µM |  |  |  |  |  |  |  |  | − | Zone of Inhibition (Escherichia coli; 400 μg/disc): −; Zone of Inhibition (Staphylococcus aureus; 400 μg/disc): −; cytotoxic effects (in words) [5]: All the compounds except 3 showed significant cytotoxic effects; Zone of Inhibition (Shigella boydii; 400 μg/disc): −; Zone of Inhibition (Shigella flexneriae; 400 μg/disc): −; Zone of Inhibition (Pseudomonas aeruginosa; 400 μg/disc): −; Zone of Inhibition (Salmonella typhi; 400 μg/disc): −; Zone of Inhibition (Aspergillus flavus; 400μg/disc): −; Zone of Inhibition (Bacillus megaterium; 400 μg/disc): −; Zone of Inhibition (Fusarium species; 400μg/disc): −; Zone of Inhibition (Shigella sonnei; 400 μg/disc): −; Zone of Inhibition (Sarcina lutea; 400 μg/disc): −; Zone of Inhibition (Shigella dysenteriae; 400 μg/disc): −; Zone of Inhibition (Bacillus Subtilis; 400 μg/disc): −; Zone of Inhibition (Strep-β-haemolyticus; 400 μg/disc): −; Zone of Inhibition (Shigella shiga): −; Zone of Inhibition (Klebsiella species; 400 μg/disc): − |
| CC(C)C=CC[C@@H](C)[C@H]1CC[C@H]2[C@@H]3CC=C4CC(O)CC[C@]4(C)[C@H]3CC[C@]12C (some centres unmarked) [Compound 4, cholesta-5,23-dien-3-ol] | 13 mm | 9 mm | 14.3 ± 0.87 µg/mL (≈ 37.1 µM) | 10 mm | 11 mm | − | 12 mm | 10 mm | 1.89 | 124 µM | 117 µM | 12 mm | 12 mm | 13 mm | 13 mm | 12 mm | 12 mm | 14 mm | 13 mm | − | Zone of Inhibition (Aspergillus flavus; 400μg/disc): −; Zone of Inhibition (Fusarium species; 400μg/disc): − |
| NC[C@H]1O[C@H](O[C@H]2[C@H](O)[C@@H](O[C@H]3O[C@H](CO)[C@@H](O)[C@H](N)[C@H]3O)[C@H](N)C[C@@H]2N)[C@H](O)[C@@H](O)[C@@H]1O [Std. Kan, kanamycin, reference compound] |  |  |  |  |  |  |  |  |  |  |  |  |  |  |  |  |  |  |  |  | Zone of Inhibition (Escherichia coli; 30 μg/disc): 27 mm; Zone of Inhibition (Staphylococcus aureus; 30 μg/disc): 33 mm; Zone of Inhibition (Shigella boydii; 30 μg/disc): 31 mm; Zone of Inhibition (Shigella flexneriae; 30 μg/disc): 27 mm; Zone of Inhibition (Pseudomonas aeruginosa; 30 μg/disc): 31 mm; Zone of Inhibition (Salmonella typhi; 30 μg/disc): 28 mm; Zone of Inhibition (Bacillus megaterium; 30 μg/disc): 27 mm; Zone of Inhibition (Shigella sonnei; 30 μg/disc): 31 mm; Zone of Inhibition (Sarcina lutea; 30 μg/disc): 29 mm; Zone of Inhibition (Shigella dysenteriae; 30 μg/disc): 32 mm; Zone of Inhibition (Bacillus Subtilis; 30 μg/disc): 24 mm; Zone of Inhibition (Strep-β-haemolyticus; 30 μg/disc): 27 mm; Zone of Inhibition (Shigella shiga): 31 mm; Zone of Inhibition (Klebsiella species; 30 μg/disc): 28 mm |
| C[C@@H]1[C@H](O)[C@@H](C)/C=C/C=C/CC/C=C/C=C/C=C/C=C/C(O[C@H]2O[C@H](C)[C@@H](O)[C@H](N)[C@@H]2O)CC2O[C@](O)(CC(O)C(O)CCC(O)CC(O)CC(O)CC(=O)O[C@H]1C)CC(O)C2C(=O)O (some centres unmarked) [Std. Nystatin, nystatin, reference compound] |  |  |  |  |  |  |  |  |  |  |  |  |  |  |  |  |  |  |  |  | Zone of Inhibition (Aspergillus niger; 50 μg/disc): 29 mm; Zone of Inhibition (Candida species; 50 μg/disc): 28 mm; Zone of Inhibition (Aspergillus flavus; 50 μg/disc): 30 mm; Zone of Inhibition (Fusarium species; 50 μg/disc): 26 mm |
| CC[C@]1(O)C[C@H]2CN(CCc3c([nH]c4ccccc34)[C@@](C(=O)OC)(c3cc4c(cc3OC)N(C=O)[C@H]3[C@@](O)(C(=O)OC)[C@H](OC(C)=O)[C@]5(CC)C=CCN6CC[C@]43[C@@H]65)C2)C1 [Vincristine, vincristine, reference compound] |  |  | 3.48 ± 0.36 µg/mL (≈ 4.22 µM) |  |  |  |  |  |  |  |  |  |  |  |  |  |  |  |  |  |  |
| O.Oc1cc(O)c2c(c1)O[C@H](c1ccc(O)c(O)c1)[C@@H](O)C2 [catechin, reference compound] |  |  |  |  |  |  |  |  | 2.14 |  |  |  |  |  |  |  |  |  |  |  |  |
